Reference: patent US4894453A, “2-substituted alkoxy-3-substituted-pyrazines” (Toyo Jozo Kabushiki Kaisha, priority 1986, dated 1990)

Legend:
[1] = system: PAF-induced aggregation (rabbit platelet plasma); experiment: Platelet aggregation inhibitory action on PAF-induced aggregation; format: cell-based; details: Oryctolagus cuniculus, 0.05 h, PAF 10-50 μg/ml, 37° C., 3 min incubation, hydrochloride salt, read-out: inhibition ratio, PAF-induced platelet aggregation
Description: (§1) The pharmacological activity of the present compounds [1] is illustrated below. All the compounds [1] used in the pharmacological tests were tested in the form of the hydrochloride salt thereof.
(§2) 1. Platelet aggregation inhibition:
(§3) Sample solution containing a compound [1] (final concentration 500 or 100 μM) is added to rabbit platelet plasma to which was added 10% by volume of a 3.8% sodium citrate solution, and the mixture is incubated at 37° C. for 3 minutes. A platelet activation factor (PAF, final concentration 10-50 μg/ml) or collagen (final concentration 2.5 μg/ml) is added thereto as an aggregating agent, and platelet aggregation activity is measured with an aggregometer. The results of assays for PAF-induced aggregation are shown in Table 3, and those for collagen-induced aggregation are shown in Table 4, which tables show the strong platelet aggregation inhibitory activity of the compounds [1] of the present invention.

[2] = system: collagen-induced aggregation (rabbit platelet plasma); experiment: Platelet aggregation inhibitory action on collagen-induced aggregation; format: cell-based; details: Oryctolagus cuniculus, 0.05 h, collagen 2.5 μg/ml, 37° C., 3 min incubation, hydrochloride salt, read-out: inhibition ratio, collagen-induced platelet aggregation
Description: as §1, §2, §3

[3] = system: lipoperoxide generation in rat cerebrum; experiment: Antioxidant activity (inhibition of lipoperoxide generation, method of Stocks et al.); format: biochemical; details: 100 μM; rat cerebrum supernatant, 37° C., 15 min, thiobarbituric acid, 532 nm; hydrochloride salt
Description: as §1
Antioxidant activity is determined according to the method of Stocks et al. [Clin. Sci. Mol. Med., 47: 215 (1974)]. Rat cerebrum is added to ice-cooled 40 mM phosphate saline buffer solution (PBS) (pH 7.4, 4 ml buffer per 1 g cerebrum), homogenized and centrifuged (1000×g, 4° C., 10 min.) to obtain a supernatant solution. The supernatant solution is diluted fivefold with the above ice-cooled PBS solution, and to a 0.9 ml aliquot thereof is added a sample containing a compound [1] (0.1 ml, final concentration 100 μM) dissolved in ethanol. The resultant mixture is incubated at 37° C. for 15 minutes, 35% perchloric acid (0.2 ml) is added, and the mixture is ice-cooled to stop the reaction and centrifuged (1300×g, 4° C., 10 min.). 0.5 ml thiobarbituric acid (5 g/lit. of 50% acetic acid) is added to the supernatant solution (1 ml), so as to measure its absorbancy at 532 nm. The amount of lipoperoxide thus generated is expressed as an amount of malondialdehyde.

[4] = system: blood flow, femoral artery / left back limb; experiment: Vasodilation activity, changes in blood flow in perfused left back limb of anesthetized dog; format: in vivo; details: 100 μg into right femoral artery; relative to increased blood flow by 30 μg papaverin intra-arterially = 100%; hydrochloride salt
Description: as §1
2. Vasodilation activity:
A dog, pretreated with morphine (1.5 mg/kg, sc) is anesthesized with urethane (450 mg/kg, iv) and α-chloralose (45 mg/kg, iv), and immobilized in the dosal position. Right femoral arterial blood is introduced into a left femoral artery via a perfusion pump, and Sterling's resistance is connected to the exosomatic circulatory system to perfuse blood to a left back limb at constant pressure. The perfusion pressure is set at a value slightly higher than that of the average blood pressure of the animal. Sample (100 μg) dissolved in physiological saline solution is administered to a right femoral artery, and changes in blood flow are measured. Vasodilation activity is measured as a relative activity, by defining as 100% the increased rate of blood flow when 30 μg papaverin is administered intra-arterially. The results are shown in Table 5, where it will be seen that the compounds [1] of the present invention have strong vasodilation activity.

[5] = system: PAF-induced aggregation (rabbit platelet plasma); experiment: Platelet aggregation inhibitory action on PAF-induced aggregation; format: cell-based; details: Oryctolagus cuniculus, 0.05 h, PAF 10-50 μg/ml, 37° C., 3 min incubation, hydrochloride salt, read-out: inhibition ratio, PAF-induced platelet aggregation; remark: listed apart in the source

| SMILES | inhibition at 100 µM [1] | inhibition at 100 µM [2] | inhibition ratio, lipoperoxide generation (antioxidant activity) [3] | vasodilation activity [4] | inhibition at 300 µM [5] | inhibition at 500 µM ([1]; 500 μM) |
| --- | --- | --- | --- | --- | --- | --- |
| CCCCCCCCc1nc2c(nc1OCCN1CCN(CCCC)CC1)CCCC2 [Compound 573] | 86% | 58% | 56% |  |  |  |
| Cc1nc(C)c(OCC(=O)NCCN2CCN(Cc3ccccc3)CC2)nc1C [Compound 136] | 50% |  |  | 204% |  |  |
| Cc1nc(C)c(OCC(=O)NCCN2CCN(Cc3ccccc3Cl)CC2)nc1C [Compound 137] | 76% |  |  | 216% |  |  |
| Cc1nc(C)c(OCC(=O)N2CCCCC2)nc1C [Compound 067] |  |  |  |  | 53% |  |
| Cc1nc(C)c(OCC(=O)NCCN2CCN(Cc3ccc(Cl)cc3)CC2)nc1C [Compound 135] |  |  |  | 242% |  | 77% |
| CCCCCCCCCc1nc2c(nc1OCCN1CCN(CCCC)CC1)CCCC2 [Compound 580] | 94% | 80% | 77% |  |  |  |
| CCc1nc(CC(C)C)c(OCCN2CCN(Cc3ccccc3)CC2)nc1CC [Compound 556] | 51% | 40% |  |  |  |  |
| CCCCCCCCCc1nc2c(nc1OCCN1CCN(Cc3ccc(OC)cc3)CC1)CCCC2 [Compound 582] |  | 58% | 82% |  |  |  |
| CCCCCCCCCCc1nc2c(nc1OCCN1CCN(CCCC)CC1)CCCC2 [Compound 587] | 91% | 79% | 65% |  |  |  |
| CCCCCCCCCCc1nc2c(nc1OCCN1CCN(CCO)CC1)CCCC2 [Compound 588] | 64% | 78% | 65% |  |  |  |
| CCc1nc(OCCN2CCCCC2)c(C(C)C)nc1CC [Compound 550] | 56% | 85% |  |  |  |  |
| Cc1nc(C)c(OCC(=O)N2CCOCC2)nc1C [Compound 075] |  |  |  | 89% |  |  |
